Data on seven compounds can be found in ChEMBL document CHEMBL1140267, “Synthesis and pharmacological evaluation of substituted 5-[4-[2-(6,7-dimethyl-1,2,3,4-tetrahydro-2-oxo-4-quinoxalinyl)ethoxy]phenyl]methylene]thiazolidine-2,4-dione derivatives as potent euglycemic and hypolipidemic agents” (Bioorg Med Chem Lett, 2005).

What all share (type): ADME, organism-based
Common to all, as to conditions: in vivo

Data set [1] in a line: Percent decrease in plasma glucose level of wistar rat was determined at 10 mg/kg dosage of the compound. Set-up: dose 10 mg/kg.
Data set [2] is described as follows: Percent decrease in plasma glucose level of wistar rat was determined at 3 mg/kg dosage of the compound. Set-up: dose 3 mg/kg.
Data set [3] in a line: Percent decrease in triglyceride level of wistar rat was determined at 3 mg/kg dosage of the compound. Set-up: dose 3 mg/kg.
Data set [4] in a line: Percent decrease in triglyceride level of wistar rat was determined at 100 mg/kg dosage of the compound. Set-up: dose 100 mg/kg.
Data set [5] in a line: Percent decrease in plasma glucose level of wistar rat was determined at 30 mg/kg dosage of the compound. Set-up: dose 30 mg/kg.
Data set [6] in a line: Percent decrease in triglyceride level of wistar rat was determined at 30 mg/kg dosage of the compound. Set-up: dose 30 mg/kg.
The nature of data set [7]: Percent decrease in plasma glucose level of wistar rat was determined at 100 mg/kg dosage of the compound. Set-up: dose 100 mg/kg.
Data set [8] in a line: Percent decrease in triglyceride level of wistar rat was determined at 10 mg/kg dosage of the compound. Set-up: dose 10 mg/kg.

Consider `Cc1cc2c(cc1C)N(CCOc1ccc(/C=C3/SC(=O)NC3=O)cc1)C(C)C(=O)N2` (stereo unspecified), for which the Decrease in data set [1] is 42.17%; in data set [2] it was 43.16%; in data set [3], 23.46%; in data set [4] it was 43.42%; in data set [5] it was 58.48%; in data set [6], 40%. The Decrease stood at 69.72% in data set [7] and 32.62% in data set [8].

For `CN(CCOc1ccc(CC2SC(=O)NC2=O)cc1)c1ccccn1` (stereo unspecified) [ROSIGLITAZONE], the Decrease amounted to 47.25% in data set [1]; 41.6% in data set [2]; 47% in data set [3]; 46% in data set [4]; 65% in data set [5]; 41% in data set [6]. Further, the Decrease in data set [7] is given as 75.5%; in data set [8], 35.25%.

With `Cc1cc2c(cc1C)N(CCOc1ccc(/C=C3/SC(=O)NC3=O)cc1)CC(=O)N2`, the Decrease in data set [1] stood at 52.63%; in data set [2], 50.12%; in data set [3], 49.63%; in data set [4], 54.95%; in data set [5], 69.47%; in data set [6] it was 49.12%. Further, the Decrease in data set [7] amounted to 81.25%; in data set [8], 44.2%.

Consider `Cc1cc2c(cc1C)N(CCCOc1ccc(/C=C3/SC(=O)NC3=O)cc1)C(C)C(=O)N2` (stereo unspecified), for which the Decrease is 39.21% in data set [1]; 35.73% in data set [2]; 21.73% in data set [3]; 37.46% in data set [4]; 49.62% in data set [5]; 28.82% in data set [6]. Besides, the Decrease in data set [7] is 64.26%; in data set [8], 29.69%.

With `Cc1cc2c(cc1C)N(CCCOc1ccc(/C=C3/SC(=O)NC3=O)cc1)C(c1ccccc1)C(=O)N2` (stereo unspecified), the Decrease in data set [1] turned out to be 19.25%; in data set [2], 18.68%; in data set [3], 10.46%; in data set [4] it was 22.89%; in data set [5] it was 26.42%; in data set [6] it was 14.73%. Moreover, the figures for the Decrease in data set [7] and in data set [8] were 38.96% and 10.66%, respectively.

For `Cc1cc2c(cc1C)N(CCCOc1ccc(/C=C3/SC(=O)NC3=O)cc1)CC(=O)N2`, the Decrease in data set [1] worked out at 49.11%; in data set [2], 47.65%; in data set [3] it was 30.36%; in data set [4], 50.1%; in data set [5], 64.76%; in data set [6] it was 47.35%. Further, the values for the Decrease in data set [7] and in data set [8] were 72.33% and 38.13%, respectively.

Consider `Cc1cc2c(cc1C)N(CCOc1ccc(/C=C3/SC(=O)NC3=O)cc1)C(c1ccccc1)C(=O)N2` (stereo unspecified), for which the Decrease in data set [1] was 21.69%; in data set [2], 25.24%; in data set [3] it was 16.87%; in data set [4], 29.73%; in data set [5], 40.26%; in data set [6], 22.46%. Besides, the figures for the Decrease in data set [7] and in data set [8] were 53.96% and 20.36%, respectively.
